Laboratory results reported in US12421224B2 (BIOGEN MA INC., priority 2019, dated 2025).

Target: T1, Recombinant full length human OGA enzyme (Homo sapiens, UniProt O60502)
T1 construct: Recombinant full length human OGA enzyme; purchased Origene
T1 sequence (O60502 1-916): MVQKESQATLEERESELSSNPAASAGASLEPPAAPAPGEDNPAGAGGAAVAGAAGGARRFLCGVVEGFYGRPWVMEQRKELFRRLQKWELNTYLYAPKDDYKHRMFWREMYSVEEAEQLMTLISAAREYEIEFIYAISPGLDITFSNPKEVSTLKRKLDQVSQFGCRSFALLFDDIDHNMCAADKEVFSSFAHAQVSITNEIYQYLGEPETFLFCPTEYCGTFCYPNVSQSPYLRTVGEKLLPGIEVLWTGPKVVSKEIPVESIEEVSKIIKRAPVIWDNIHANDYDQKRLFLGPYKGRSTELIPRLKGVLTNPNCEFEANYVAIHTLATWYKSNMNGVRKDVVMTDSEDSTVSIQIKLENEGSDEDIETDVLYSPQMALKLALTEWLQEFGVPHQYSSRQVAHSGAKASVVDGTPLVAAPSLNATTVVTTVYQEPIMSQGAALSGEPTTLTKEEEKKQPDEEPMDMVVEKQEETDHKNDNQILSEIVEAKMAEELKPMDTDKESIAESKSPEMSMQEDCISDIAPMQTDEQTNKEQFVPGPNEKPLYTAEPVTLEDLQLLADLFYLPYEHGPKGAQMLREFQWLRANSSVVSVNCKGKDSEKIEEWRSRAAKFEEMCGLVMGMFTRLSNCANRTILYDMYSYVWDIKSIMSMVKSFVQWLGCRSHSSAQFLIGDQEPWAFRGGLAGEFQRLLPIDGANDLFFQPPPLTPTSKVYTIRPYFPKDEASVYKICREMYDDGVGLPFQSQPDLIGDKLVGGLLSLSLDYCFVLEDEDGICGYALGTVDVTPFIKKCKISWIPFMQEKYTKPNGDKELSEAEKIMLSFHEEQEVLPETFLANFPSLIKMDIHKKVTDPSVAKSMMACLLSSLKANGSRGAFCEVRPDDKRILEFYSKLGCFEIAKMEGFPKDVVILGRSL
Experiment: OGA Enzyme Inhibition Biochemical Assay
Conditions: 1 nM OGA, 100 μM 4-MUGlcNAc (Km), pH 6.4, 90 minutes at room temperature, 10-point dose-response starting from 20 μM
Experimental: OGA Enzyme Inhibition Biochemical Assay
Recombinant full length human OGA enzyme was purchased from Origene. 4-MUGlCNAc substrate was purchased from Sigma. All other reagents were purchased from Sigma or Fisher. Assay buffer consists of the Mcllvaine buffer system, pH 6.4 (0.2M Na2HPO4 mixed with 0.1M citric acid) and 0.01% BSA. Reactions consist of 1 nM OGA, 100 μM 4-MUGlcNAc (Km), and compound in a final volume of 10 μl. Reactions were incubated for 90 minutes at room temperature and quenched with […] of 3M glycine, pH 10 and read on a Perkin Elmer Envision plate reader (Ex: 355 nm/Em: 460 nm). Compounds were tested with a 10-point dose-response starting from 20 μM with a 4-fold dilution. Data was fit using GraphPad Prism using a 4-parameter fit with variable slope.

Row | IC50 | Compound
1 | 570 nM | CC(=O)Nc1ncc(CN2C[C@@H](Oc3ncc(F)cn3)[C@H]2C)s1 [Example 2-29, N-(5-(((2R,3R)-3-((5-fluoropyrimidin-2-yl)oxy)-2-methylazetidin-1-yl)methyl)thiazol-2-yl)acetamide]
2 | 610 nM | COc1cc(NCC2CN(Cc3cnc(NC(C)=O)s3)C2)ccn1 [Example 2-25, N-(5-((3-(((2-methoxypyridin-4-yl)amino)methyl)azetidin-1-yl)methyl)thiazol-2-yl)acetamide]
3 | 91 nM | CC(=O)Nc1ncc(CN2CC(NCc3cc(C)nc(C)c3)C2)s1 [Example 3-1, N-(5-((3-(((2,6-dimethylpyridin-4-yl)methyl)amino)azetidin-1-yl)methyl)thiazol-2-yl)acetamide]

Second part, the compound before the results:

Row | Compound | IC50
4 | CC(=O)Nc1ncc(CN2CC(Nc3ccc(C#N)cn3)C2)s1 [Example 2-13, N-(5-((3-((5-cyanopyridin-2-yl)amino)azetidin-1-yl)methyl)thiazol-2-yl)acetamide] | 59 nM
5 | COc1cc(OC2CN(Cc3cnc(NC(C)=O)s3)C2)ccn1 [Example 2-3, N-(5-((3-((2-methoxypyridin-4-yl)oxy)azetidin-1-yl)methyl)thiazol-2-yl)acetamide] | 160 nM
6 | COc1cc(O[C@@H]2CN(Cc3cnc(NC(C)=O)s3)[C@@H]2C)ccn1 [Example 2-6, N-(5-(((2R,3R)-3-((2-methoxypyridin-4-yl)oxy)-2-methylazetidin-1-yl)methyl)thiazol-2-yl)acetamide] | 170 nM
7 | CC(=O)Nc1ncc(CN2CC(COc3cc(C)nc(C)n3)C2)s1 [Example 2-21, N-(5-((3-(((2,6-dimethylpyrimidin-4-yl)oxy)methyl)azetidin-1-yl)methyl)thiazol-2-yl)acetamide] | 1300 nM
8 | COc1cc(COC2CN(Cc3cnc(NC(C)=O)s3)C2)ccn1 [Example 1-1, N-(5-((3-((2-methoxypyridin-4-yl)methoxy)azetidin-1-yl)methyl)thiazol-2-yl)acetamide] | 91 nM
